The NIST ThermoML archive (doi:10.1016/j.tca.2009.10.001)
± gives the expanded uncertainty stated by the source.

What was measured:
[1] = Liquid; for viscosity: Capillary tube (Ostwald / Ubbelohde) method; for speed of sound: Linear variable-path acoustic interferometer; for mass density: Pycnometric method
[2] = xn = mol fraction of the nth substance listed; conditions: 101 kPa, Liquid, x1 = 1; for viscosity: Capillary tube (Ostwald / Ubbelohde) method; for speed of sound: Linear variable-path acoustic interferometer; for mass density: Pycnometric method

CC#N [acetonitrile]
[1], 101.33 kPa
Conditions	mass density [kg/m3]	speed of sound [m/s]	viscosity [mPa·s]
298.15 K	775.3 ± 0.3	1271.3 ± 1.8	0.3696 ± 0.0053
303.15 K	769.9 ± 0.3	1251.9 ± 1.8	0.3554 ± 0.0052
308.15 K	764.7 ± 0.4	1231.7 ± 1.7	0.3414 ± 0.0052

CCCC#N [butanenitrile]
[1], 101.33 kPa
Conditions	mass density [kg/m3]	speed of sound [m/s]	viscosity [mPa·s]
298.15 K	784.7 ± 0.3	1271.4 ± 1.8	0.5463 ± 0.0061
303.15 K	780.3 ± 0.4	1252.2 ± 1.8	0.5255 ± 0.006
308.15 K	775.9 ± 0.4	1233.9 ± 1.7	0.5049 ± 0.0059

CCC#N [propanenitrile]
[1], 101.33 kPa
Conditions	mass density [kg/m3]	speed of sound [m/s]	viscosity [mPa·s]
298.15 K	775.4 ± 0.3	1252.4 ± 1.8	0.4107 ± 0.0055
303.15 K	769.9 ± 0.3	1232.7 ± 1.7	0.3991 ± 0.0054
308.15 K	765.2 ± 0.4	1213.7 ± 1.7	0.3822 ± 0.0053

Cc1ccccc1 [toluene]
[1], 101 kPa
Conditions	mass density [kg/m3]	speed of sound [m/s]	viscosity [mPa·s]
298.15 K	860.9 ± 0.3	1299.8 ± 1.5	0.5635 ± 0.0056
303.15 K	856 ± 0.3	1279.5 ± 1.5	0.5344 ± 0.0055
308.15 K	851.6 ± 0.3	1260.7 ± 1.5	0.5091 ± 0.0054

Cc1ccccc1 [toluene] + CC#N
[2]
Conditions	mass density [kg/m3]	speed of sound [m/s]	viscosity [mPa·s]
298.15 K	860.9 ± 0.3	1299.8 ± 1.5	0.5635 ± 0.0056
303.15 K	856 ± 0.3	1279.5 ± 1.5	0.5344 ± 0.0055
308.15 K	851.6 ± 0.3	1260.7 ± 1.5	0.5091 ± 0.0054

Cc1ccccc1 [toluene] + CCC#N
[2]
Conditions	mass density [kg/m3]	speed of sound [m/s]	viscosity [mPa·s]
298.15 K	860.9 ± 0.3	1299.8 ± 1.5	0.5635 ± 0.0056
303.15 K	856 ± 0.3	1279.5 ± 1.5	0.5344 ± 0.0055
308.15 K	851.6 ± 0.3	1260.7 ± 1.5	0.5091 ± 0.0054

Cc1ccccc1 [toluene] + CCCC#N
[2]
Conditions	mass density [kg/m3]	speed of sound [m/s]	viscosity [mPa·s]
298.15 K	860.9 ± 0.3	1299.8 ± 1.5	0.5635 ± 0.0056
303.15 K	856 ± 0.3	1279.5 ± 1.5	0.5344 ± 0.0055
308.15 K	851.6 ± 0.3	1260.7 ± 1.5	0.5091 ± 0.0054
